Where two headings read alike, the source gives them in different places.
Tests used:
[1] = tested on: human breast cancer cell line (MCF-7); test: Anticancer activity against human breast cancer cell line MCF-7; assay type: cell-based
[2] = tested on: adeno carcinomic human alveolar basal epithelial cell line (A-549); test: Anticancer activity against human alveolar basal epithelial cell line A-549; assay type: cell-based

| melting point [°C] | IC50 ([1]; MCF7) [nM] | IC50 [1] [nM] | Compound | IC50 ([2]; A549) [nM] | IC50 [2] [nM] |
| --- | --- | --- | --- | --- | --- |
| 272 to 274 | 295 |  | COc1ccc(-c2nc(=O)[nH]c3[nH]c(=O)[nH]c(=O)c23)cc1O [Compound 4c, 5-(3-Hydroxy-4-methoxyphenyl)pyrimido[4,5-d]pyrimidine-2,4,7(1H,3H,8H)-trione] | 461 |  |
|  |  | 10 | 5-(3-Hydroxy-4-methoxyphenyl)-1,3-dimethylpyrimido[4,5-d]pyrimidine-2,4,7(1H,3H,8H)-trione [Compound 4d] |  | 186 |
| 186 to 188 | 663 |  | O=c1nc(-c2cccc(OCc3ccccc3)c2)c2c(=O)[nH]c(=O)[nH]c2[nH]1 [Compound 4a, 5-(3-(Benzyloxy)phenyl)pyrimido[4,5-d]pyrimidine-2,4,7(1H,3H,8H)-trione] | 518 |  |
| 142 to 144 | 38 |  | O=c1nc(-c2ccc(OCc3ccccc3)cc2)c2c(=O)[nH]c(=O)[nH]c2[nH]1 [Compound 4b, 5-(4-(Benzyloxy)phenyl)pyrimido[4,5-d]pyrimidine-2,4,7(1H,3H,8H)-trione] | 82 |  |

Source: patent US11932649B1, “5-(3-substituted phenyl)-pyrimido[4,5-d]pyrimidine-2,4,7(1H,3H,8H)-trione derivatives as anticancer agents” (KING FAISAL UNIVERISTY, priority 2023, dated 2024)
